The series has as its system L929 mouse fibroblast cells. Description: Cytotoxicity assay (MTT). The format is cell-based. The note with it: 24 h, 62.5 μg/ml. The procedure: The toxicity of P7 peptide on L929 mouse fibroblast cells was assessed by a dye reduction assay using 3-(4,5 dimethylthiazol-2-yl)-2,5-diphenyltetrazolium bromide (MTT). Briefly, 3 × 10^4 L929 cells in RPMI 1640 [supplemented with 10% (v/v) fetal bovine serum, 0.2% (w/v) sodium bicarbonate, 2 mM L-glutamine, 100 U/ml penicillin and […] streptomycin] were seeded into each well of 96-well plates and then incubated in a humidified atmosphere with 5% CO2 at 37°C for 24 h. After the incubation period, the peptide was added to obtain final concentrations of 0.98–250 μg/ml; plates were incubated at 37°C under 5% CO2 for 24 h. RPMI 1640 medium with and without cells were used as positive and negative controls, respectively. After incubation, a final concentration of 0.5 mg/ml MTT (Sigma-Aldrich, MO, United States) was added and incubated at 37°C under 5% CO2 for 4 h. Then, the supernatants were removed from each well and 150 μl of dimethyl sulfoxide (DMSO) was added and mixed thoroughly to solubilize the formazan crystals. Subsequently, absorbance was measured at 570 nm using a microplate reader. The cell viability (%) was calculated according to the formula:
%Cellviability=ODTreated-ODBlank/ODUntreated-ODBlank×100

For the compound `CC[C@H](C)[C@H](NC(=O)CN)C(=O)NCC(=O)N[C@@H](C)C(=O)N[C@H](C(=O)N[C@@H](CC(C)C)C(=O)N[C@@H](CCCCN)C(=O)N[C@H](C(=O)N[C@@H](CC(C)C)C(=O)N[C@H](C(=O)N[C@H](C(=O)NCC(=O)N[C@@H](CC(C)C)C(=O)N1CCC[C@H]1C(=O)N[C@@H](C)C(=O)N[C@@H](CC(C)C)C(=O)N[C@H](C(=O)N[C@@H](CO)C(=O)N[C@@H](Cc1c[nH]c2ccccc12)C(=O)N[C@H](C(=O)N[C@@H](CCCCN)C(=O)N[C@@H](CCCNC(=N)N)C(=O)N[C@@H](CCCCN)C(=O)N[C@@H](CCCNC(=N)N)C(=O)N[C@@H](CCC(N)=O)C(=O)N[C@@H](CCC(N)=O)C(N)=O)[C@@H](C)CC)[C@@H](C)CC)[C@@H](C)O)[C@@H](C)O)C(C)C)C(C)C` [Melittin, reference compound], the Cell viability entry is listed as “less than 10%”.

The values above are taken from article PMC7838546, “A Thermostable, Modified Cathelicidin-Derived Peptide With Enhanced Membrane-Active Activity Against Salmonella enterica serovar Typhimurium” (Frontiers in Microbiology, 2021).
